Assay results from US8759104B2, “Cationic lipids” (The University Court of the University of Edinburgh, priority 2010, dated 2014).

Columns and labels:
B16F10 cells [1] = assay: Transfection of pEGFP-C1 reporter plasmid into B16F10 cells, GFP expression by flow cytometry; assay type: cell-based, mouse
Method: (§1) The corresponding cationic lipid (1 mM in methanol) were mixed in different proportions with DOPE (10 mg/mL in chloroform) and the organic solvent removed by evaporation in an oven (37° C.) overnight. The resultant thin films were then hydrated with PBS. The solutions were vortexed (10-20 s) and incubated at ambient temperature for 20 min. Plasmid DNA or siRNA solution (0.04 mg/mL in PBS or another isotonic solution) was subsequently added and the solution vortexed (10-20 s). The lipoplexes were incubated at room temperature for 20 min before being used.
(§2) Human HeLa cells were grown in RPMI supplemented with 4 mM glutamine, 10% FCS and 100 units/ml penicillin/streptomycin (RPMI-CM) until 80% confluence. HEK293 and B16F10 cells were grown in DMEM supplemented with 4 mM glutamine, 10% FCS and 100 units/ml penicillin/streptomycin (DMEM-CM) until 80% confluence. Cells were then suspended using trypsin/EDTA and counted. 2×10^4 cells in 150 μL of media per well were seeded in 96 well plates and incubated overnight. The day afterwards, the different lipoplex formulations were added. Each experiment was performed in quadruplicate, using Effectene® Transfection Reagent (Qiagen), Lipofectamine™ 2000 (Invitrogen) and Fugene (Roche) as positive controls and untreated cells as negative controls. After two days incubation at 37° C. and 5% CO2 (the change of media after transfection was not necessary), the green fluorescent protein (GFP) expression, as a consequence of transfecting the pEGFP-C1, was evidenced using a fluorescent microscope (Leica) and measured by flow cytometry. For the flow cytometry analysis, cells were washed twice with PBS, detached with trypsin/EDTA, harvested with 2% ferum bovine serum (FBS) in PBS, centrifuged and resuspended with 2% FBS in PBS and analyzed using a BD FACSaria flow cytometer. Transfection efficiency was measured as percentage of transfected cells.
(§3) Reagents that obtained greater than 50% transfection were also analyzed against HEK293 and B16F10 cell lines. Transfection results (+ percentages of transfection between 5-25%; ++ percentages of transfection between 25-50%; N.D. not determined). MTT toxicity assay results are indicated between brackets with 100% being cell viability of untreated cells.

B16F10 cells [2] = assay: MTT cell viability assay of transfected B16F10 cells; assay type: cell-based, mouse; details: 100% being cell viability of untreated cells; 24 h after addition of transfection agents
Method: as §3
(§4) Twenty-four hours after the addition of transfection agents, cell viability was measured using an MTT cell proliferation assay (LGC Promochem, Middlesex, UK), which was performed according to the manufacturer's instructions. Absorbance was read at 570 nm. […] The comparative data obtained with lipids 28a, 29a, 30a and 31a of the invention, Lipofectamine™ 2000, Fugene and Effectene® Transfection Reagent are shown between brackets in Table 2.

HeLa cells [3] = assay: Transfection of fluorescein-labelled siRNA (siGLO) into HeLa cells, flow cytometry; assay type: cell-based, human; details: 24 h incubation
Method: as §1
Cells were suspended using trypsin/EDTA and counted. 2×10^4 cells in 150 μL of RPMI-CM per well were seeded in 96-well plates and incubated overnight. The day afterwards, the different lipoplex formulations formulated with siGLO (fluorescein-labeled siRNA that localizes within cell nuclei (Dharmacon)) and added to the cells. […] After 24 h incubation at 37° C. and 5% CO2 (change of media after transfection was not necessary), the green fluorescence emitted by intracellular siGLO was imaged under microscope. […] For the flow cytometry analysis, cells were washed twice with PBS, detached with trypsin/EDTA, harvested with 2% FBS in PBS, centrifuged and resuspended with 2% FBS in PBS and analyzed using a BD FACSaria flow cytometer.

HeLa cells [4] = assay: MTT cell viability assay of transfected HeLa cells; assay type: cell-based, human; details: 100% being cell viability of untreated cells; 24 h after addition of transfection agents
Method: as §3, §4

mice = assay: In vivo transfection of luciferase-expressing plasmid (pLux) in mice, luminescence imaging
Method: Experiments were performed to transfect a luciferase-expressing plasmid (pLux) by intravenous injection via the vein tail of mice: three transfected with pLux complexed with compound 29a and three (control) with naked pLux. Two days after instillation, firefly luciferin was administrated intraperitoneally and the mice imaged using an IVIS Spectrum.
The mouse depicted on the left was transfected with naked plasmid; the mouse the right was transfected with plasmid complexed with compound 29a. Mice (n=3, per experiment) were anaesthetised and intubated following standard protocols. 16 μg of a luciferase-reporter plasmid were used per mouse. […] Firefly luciferin (15 mg/kg) was administered intraperitoneally to the anesthetized mice 15 min before scanning for luminescence. Imaging was performed on the IVIS Spectrum (Caliper LS) with large binning, open filter for 10 min.

HeLa cells [5] = assay: Transfection of pEGFP-C1 reporter plasmid into HeLa cells, GFP expression by flow cytometry; assay type: cell-based, human; details: for Transfection compared with the positive controls: N/P ratio 3, 1:1 mol mixture with DOPE, controls Effectene, Lipofectamine 2000, Fugene
Method: as §1, §2, §3

HEK293 cells [6] = assay: MTT cell viability assay of transfected HEK293 cells; assay type: cell-based, human; details: 100% being cell viability of untreated cells; 24 h after addition of transfection agents
Method: as §3, §4

HEK293 cells [7] = assay: Transfection of pEGFP-C1 reporter plasmid into HEK293 cells, GFP expression by flow cytometry; assay type: cell-based, human
Method: as §1, §2, §3

[8] = HeLa cells 48 h after transfection with reporter plasmid, flow cytometry

Row | Behaviour of mice during the study (mice; mice monitored on a daily basis, n=3 per experiment) | SMILES | Transfection efficiency (percentage of transfected cells), B16F10 (B16F10 cells [1]) [%] | MTT toxicity assay, cell viability (between brackets), B16F10 (B16F10 cells [2]) [%] | Cells fluorescently labelled after siRNA transfection (HeLa cells [3]) | MTT toxicity assay, cell viability (between brackets), HeLa (HeLa cells [4]) [%] | Luminescence after in vivo transfection of pLux (mice; mice, intravenous injection via tail vein, 16 μg plasmid per mouse, imaged 48 hours after transfection) | Location of highest luminescence signal (mice; mice, intravenous injection via tail vein, 48 hours after transfection) | Transfection efficiency (percentage of transfected cells), HeLa (HeLa cells [5]; [8]) [%] | Transfection compared with the positive controls (HeLa cells [5]) | MTT toxicity assay, cell viability (between brackets), HEK293 (HEK293 cells [6]) [%] | Transfection efficiency (percentage of transfected cells), HEK293 (HEK293 cells [7]) [%] | Transfection results (percentage of transfected cells), HeLa (HeLa cells [5]; [8])
1 | behaved normally | CCCCCCCCCCCCCCCC(=O)NCCN(CCNC(=O)CCCCCCCCCCCCCCC)C(=O)/C=C\C(=O)N[C@@H](CCCNC(=N)N)C(=O)N[C@@H](CCCNC(=N)N)C(N)=O.O=C(O)C(F)(F)F.O=C(O)C(F)(F)F [Compound A2-Sp2-P] | 78 | 99 | over 96% | 99 | Positive luminescence was detected | at the point of injection | 86 | more effectively than the positive controls | 98 | 90 | 
2 |  | CCCCCCCCCCCCCCCC(=O)NCCN(CCNC(=O)CCCCCCCCCCCCCCC)C(=O)CCC(=O)N[C@@H](CCCNC(=N)N)C(=O)N[C@@H](CCCNC(=N)N)C(=O)N[C@@H](CCCNC(=N)N)C(N)=O.O=C(O)C(F)(F)F.O=C(O)C(F)(F)F.O=C(O)C(F)(F)F [Compound A3-Sp1-P] | 56 | 89 |  | 93 |  |  | 75 |  | 95 | 84 | 
3 |  | CCCCCCCCCCCCCCCC(=O)NCCN(CCNC(=O)CCCCCCCCCCCCCCC)C(=O)CCC(=O)N[C@@H](CCCNC(=N)N)C(=O)N[C@@H](CCCNC(=N)N)C(N)=O.O=C(O)C(F)(F)F.O=C(O)C(F)(F)F [Compound A2-Sp1-P] | 74 | 98 |  | 99 |  |  | 85 | more effectively than the positive controls | 97 | 89 | 
4 |  | CCCCCCCCCCCCCCCC(=O)NCCN(CCNC(=O)CCCCCCCCCCCCCCC)C(=O)/C=C\C(=O)N[C@@H](CCCNC(=N)N)C(=O)N[C@@H](CCCNC(=N)N)C(=O)N[C@@H](CCCNC(=N)N)C(N)=O.O=C(O)C(F)(F)F.O=C(O)C(F)(F)F.O=C(O)C(F)(F)F [Compound A3-Sp2-P] | 69 | 93 |  | 92 |  |  | 70 |  | 96 | 80 | 
5 |  | CCCCCCCCCCCCCCCCCCCC(=O)NCCN(CCNC(=O)CCCCCCCCCCCCCCCCCCC)C(=O)CCC(=O)N[C@@H](CCCNC(=N)N)C(N)=O.O=C(O)C(F)(F)F [Compound A1-Sp1-A] |  |  |  |  |  |  |  |  |  |  | + (percentages of transfection between 5-25%)
